Starred links: 1 amine or outer side, 2 acyl side, 3 side chain; linkers in the order of their positions; H or OH if unused. Positions of bridges follow the written chain, without caps; N, C: chain ends. Non-standard residues stand in square brackets, D forms with d. Residues, ends and D or L forms follow the SMILES beside them. Groups on a side chain read outwards from the residue. *: point of attachment. Trp(1-Me) = Cn1cc(C[C@H](N)C(=O)O)c2ccccc21; C18 diacid = O=C(O)CCCCCCCCCCCCCCCCC(=O)*; C16 diacid = O=C(O)CCCCCCCCCCCCCCC(=O)*; γGlu = O=C(O)[C@H](CCC(=O)[*:2])N[*:1]; 2Nal = N[C@@H](Cc1ccc2ccccc2c1)C(=O)O; AEEA = NCCOCCOCC(=O)O; Sar = CNCC(=O)O
How the values were obtained:
[1] = test system: classical complement pathway; test: In vitro haemolysis assay (inhibition of classical complement pathway); assay type: cell-based, human; conditions: human serum, sensitized sheep red blood cells; Table 3, given as upper bounds; read-out: IC50, inhibition of hemolysis
Description: The in vitro effect of the compounds of the present invention was assessed by measuring their inhibitory effect of the classical complement pathway in a haemolysis assay. Briefly, compounds of the present invention and reference compounds were dissolved in DMSO and diluted in Tris/Casein Assay Buffer (10 mM Tris, 145 mM NaCl, 0.5 mM MgCl2, 0.15 mM CaCl2), and 0.1% W/V Casein, adjusted to pH 7.4) as 9-point serial dilutions in a 96 well plate. Sensitized sheep red blood cells (RBC) coated with rabbit anti-sheep erythrocyte antiserum (Complement Technology, Inc., TX, USA) were washed in Tris/Casein Assay Buffer. […] from each well of diluted compound was added to a 96-well plate containing 50 μL diluted human serum (Complement Technology, Inc., TX, USA) and incubated for 15 minutes at room temperature. The serum dilution factor was optimized for every serum batch to obtain 70-90% of maximal haemolysis using the protocol. Then 50 μL sensitized sheep red blood cells were added to all wells (10^7 per well). After 30 minutes of incubation at 37 QC with gentle agitation, the reaction was stopped by addition of 50 μL Tris STOP Buffer per well (10 mM EDTA, 10 mM Tris, 145 mM NaCl adjusted to pH 7.4). The RBCs were then removed by centrifugation and the resulting supernatant measured for hemolysis by absorbance at 405 nm. The response was normalized relative to a positive and negative control (vehicle) to calculate the IC50 from the concentration response curve using the 4-parameter logistic (4PL) nonlinear model for curve fitting.

[2] = Solubility test at 10 mg/mL (visual inspection and light scattering); assay type: physicochemical; conditions: for Solubility, Condition 1: Acetate pH 4; for Solubility, Condition 2: Acetate pH 5; for Solubility, Condition 3: Phosphate pH 6; for Solubility, Condition 4: Phosphate pH 7; for Solubility, Condition 5: Phosphate pH 7.5
Description: The solubility of compounds was assessed by measuring light scattering over a pH interval from pH 4 to pH 7.5.
Compounds were dissolved in a stock solution of 20 mg/mL in H2O at pH 2.5 or pH 10. These stock solutions were diluted 1:1 with 200 mM buffered solution to reach a final solution of 10 mg/mL compound in 100 mM buffer. The 5 investigated conditions were (1) acetate pH 4.0, (2) acetate pH 5.0, (3) phosphate pH 6.0, (4) phosphate pH 7 and (5) phosphate pH 7.5.
Visual inspection included manually checking the 96 well plate for wells that are clear or non-clear. In addition to this a picture of the 96 well plate is taken.
Absorbance was measured at four wavelengths: 280 nm, 325 nm, 340 nm and 360 nm in an UV transparent 96 well microplate in a SpectraMax 190 microplate reader (Molecular Devices).
The criteria for this was a combination of visual inspection and light scattering not exceeding 0.1 AU, where values below 0.1 AU are good in visually clear samples.

## CC[C@H](C)[C@@H]1NC(=O)[C@@H](NC(=O)[C@H](Cc2ccccc2)NC(=O)[C@H](CCC(=O)O)NC(=O)[C@H](CO)NC(C)=O)CSSC[C@@H](C(=O)N[C@H](C(=O)N[C@@H](CCC(=O)O)C(=O)NCC(=O)N[C@@H](CCC(=O)O)C(=O)NCCOCCOCC(=O)N[C@@H](CCC(=O)O)C(=O)N[C@@H](CO)C(=O)N[C@@H](CCCCNC(=O)CC[C@H](NC(=O)CCCCCCCCCCCCCCCCC(=O)O)C(=O)O)C(N)=O)[C@@H](C)O)NC(=O)[C@H](CCCNC(=N)N)NC(=O)[C@H](Cc2c[nH]cn2)NC(=O)[C@H](CCC(=O)O)NC(=O)CNC(=O)[C@H](Cc2c[nH]c3ccccc23)NC(=O)[C@H](CC(=O)O)NC(=O)[C@H](CCC(N)=O)NC(=O)[C@H](Cc2cn(C)c3ccccc23)NC1=O [Compound 142] (Ac-SEFCI[Trp(1-Me)]QDWGEHRCTEGE[AEEA]ESK([γGlu-C18 diacid])-NH2; disulfide 4-14)
[1]
  IC50: < 100 nM

## CC[C@H](C)[C@@H]1NC(=O)[C@@H](NC(=O)[C@H](Cc2ccccc2)NC(=O)[C@H](CCC(=O)O)NC(=O)[C@H](CO)NC(C)=O)CSSC[C@@H](C(=O)N(C)CC(=O)N[C@@H](CCC(=O)O)C(=O)N[C@@H](C)C(N)=O)NC(=O)[C@H](CCCCN)NC(=O)[C@H](Cc2c[nH]cn2)NC(=O)[C@H](CCC(=O)O)NC(=O)CNC(=O)[C@H](Cc2c[nH]c3ccccc23)NC(=O)[C@H](CC(=O)O)NC(=O)[C@H](CCC(N)=O)NC(=O)[C@H](Cc2cn(C)c3ccccc23)NC1=O [Compound 86] (Ac-SEFCI[Trp(1-Me)]QDWGEHKC[Sar]EA-NH2; disulfide 4-14)
[1]
  IC50: < 100 nM

## CC[C@H](C)[C@@H]1NC(=O)[C@@H](NC(=O)[C@H](Cc2ccccc2)NC(C)=O)CSSC[C@@H](C(=O)N[C@H](C(=O)NCC(=O)N[C@@H](C)C(=O)N[C@@H](CCC(=O)O)C(=O)N[C@@H](CO)C(N)=O)[C@@H](C)O)NC(=O)[C@H](CCCNC(=N)N)NC(=O)[C@H](Cc2c[nH]cn2)NC(=O)[C@H](CCC(=O)O)NC(=O)CNC(=O)[C@H](Cc2c[nH]c3ccccc23)NC(=O)[C@H](CC(=O)O)NC(=O)[C@H](CCC(N)=O)NC(=O)[C@H](Cc2ccc3ccccc3c2)NC1=O [Compound 64] (Ac-FCI[2Nal]QDWGEHRCTGAES-NH2; disulfide 2-12)
[1]
  IC50: < 100 nM

## CC[C@H](C)[C@@H]1NC(=O)[C@@H](NC(=O)[C@H](Cc2ccc(O)cc2)NC(=O)[C@H](CCC(=O)O)NC(=O)[C@H](CO)NC(C)=O)CSSC[C@@H](C(=O)N(C)CC(=O)N[C@@H](CCC(=O)O)C(=O)NCC(=O)N[C@@H](CCC(=O)O)C(=O)NCCOCCOCC(=O)NCCOCCOCC(=O)N[C@@H](CCCCNC(=O)CC[C@H](NC(=O)CNC(=O)CC[C@H](NC(=O)CCCCCCCCCCCCCCCCC(=O)O)C(=O)O)C(=O)O)C(N)=O)NC(=O)[C@H](CCCNC(=N)N)NC(=O)[C@H](Cc2c[nH]cn2)NC(=O)[C@H](CCC(=O)O)NC(=O)CNC(=O)[C@H](Cc2c[nH]c3ccccc23)NC(=O)[C@H](CC(=O)O)NC(=O)[C@H](CCC(N)=O)NC(=O)[C@H](Cc2cn(C)c3ccccc23)NC1=O [Compound 117] (Ac-SEYCI[Trp(1-Me)]QDWGEHRC[Sar]EGE[AEEA][AEEA]K([γGlu-Gly-γGlu-C18 diacid])-NH2; disulfide 4-14)
[1]
  IC50: < 250 nM

## CC[C@H](C)[C@H](NC(=O)[C@H](C)NC(=O)[C@H](CO)NC(=O)[C@H](CO)NC(=O)[C@H](CCC(=O)O)NC(=O)CCCCCCCCCCCCCCC(=O)O)C(=O)N[C@H]1CSSC[C@@H](C(=O)N[C@H](C(=O)N[C@@H](CCC(=O)O)C(=O)NCC(=O)N[C@@H](CCC(=O)O)C(N)=O)[C@@H](C)O)NC(=O)[C@H](CCCNC(=N)N)NC(=O)[C@H](Cc2c[nH]cn2)NC(=O)[C@H](CCC(=O)O)NC(=O)CNC(=O)[C@H](Cc2c[nH]c3ccccc23)NC(=O)[C@H](CC(=O)O)NC(=O)[C@H](CCC(N)=O)NC(=O)[C@H](Cc2c[nH]c3ccccc23)NC(=O)[C@H]([C@@H](C)CC)NC1=O [Compound 99] ({C16 diacid}-ESSAICIWQDWGEHRCTEGE-NH2; disulfide 6-16)
[1]
  IC50: < 250 nM

## CC[C@H](C)[C@@H]1NC(=O)[C@@H](NC(=O)[C@H](Cc2ccc(O)cc2)NC(=O)[C@H](CCC(=O)O)NC(=O)[C@H](CO)NC(C)=O)CSSC[C@@H](C(=O)N(C)CC(=O)N[C@@H](CCC(=O)O)C(=O)NCC(=O)N[C@@H](CCC(=O)O)C(=O)N[C@@H](CCCCNC(=O)CC[C@H](NC(=O)[C@H](CCCCN)NC(=O)CC[C@H](NC(=O)CCCCCCCCCCCCCCCCC(=O)O)C(=O)O)C(=O)O)C(N)=O)NC(=O)[C@H](CCCNC(=N)N)NC(=O)[C@H](Cc2c[nH]cn2)NC(=O)[C@H](CCC(=O)O)NC(=O)CNC(=O)[C@H](Cc2c[nH]c3ccccc23)NC(=O)[C@H](CC(=O)O)NC(=O)[C@H](CCC(N)=O)NC(=O)[C@H](Cc2cn(C)c3ccccc23)NC1=O [Compound 116] (Ac-SEYCI[Trp(1-Me)]QDWGEHRC[Sar]EGEK([γGlu-Lys-γGlu-C18 diacid])-NH2; disulfide 4-14)
[2]
  Solubility, Condition 1: − (“−” denotes lack of solubility at the given condition, as UV absorbance at 340 nm exceeds 0.1 AU and/or it is visibly turbid or contains particles)
  Solubility, Condition 2: − (“−” denotes lack of solubility at the given condition, as UV absorbance at 340 nm exceeds 0.1 AU and/or it is visibly turbid or contains particles)
  Solubility, Condition 3: + (“+” denotes solubility at the given condition, as determined by UV absorbance being less than 0.1 AU at 340 nm and the sample being clear when manually inspected)
  Solubility, Condition 4: + (“+” denotes solubility at the given condition, as determined by UV absorbance being less than 0.1 AU at 340 nm and the sample being clear when manually inspected)
  Solubility, Condition 5: + (“+” denotes solubility at the given condition, as determined by UV absorbance being less than 0.1 AU at 340 nm and the sample being clear when manually inspected)

## CC[C@H](C)[C@@H]1NC(=O)[C@@H](NC(=O)[C@H](Cc2ccc(O)cc2)NC(=O)[C@H](C)NC(=O)[C@H](CO)NC(C)=O)CSSC[C@@H](C(=O)N(C)CC(=O)N[C@@H](CCC(=O)O)C(=O)N[C@@H](CCCCNC(=O)CC[C@H](NC(=O)CNC(=O)[C@H](CCCCN)NC(=O)CC[C@H](NC(=O)CCCCCCCCCCCCCCCCC(=O)O)C(=O)O)C(=O)O)C(N)=O)NC(=O)[C@H](CCCNC(=N)N)NC(=O)[C@H](Cc2c[nH]cn2)NC(=O)[C@H](CCC(=O)O)NC(=O)CNC(=O)[C@H](Cc2c[nH]c3ccccc23)NC(=O)[C@H](CC(=O)O)NC(=O)[C@H](CCC(N)=O)NC(=O)[C@H](Cc2cn(C)c3ccccc23)NC1=O [Compound 105] (Ac-SAYCI[Trp(1-Me)]QDWGEHRC[Sar]EK([γGlu-Gly-Lys-γGlu-C18 diacid])-NH2; disulfide 4-14)
[2]
  Solubility, Condition 1: − (“−” denotes lack of solubility at the given condition, as UV absorbance at 340 nm exceeds 0.1 AU and/or it is visibly turbid or contains particles)
  Solubility, Condition 2: − (“−” denotes lack of solubility at the given condition, as UV absorbance at 340 nm exceeds 0.1 AU and/or it is visibly turbid or contains particles)
  Solubility, Condition 3: + (“+” denotes solubility at the given condition, as determined by UV absorbance being less than 0.1 AU at 340 nm and the sample being clear when manually inspected)
  Solubility, Condition 4: + (“+” denotes solubility at the given condition, as determined by UV absorbance being less than 0.1 AU at 340 nm and the sample being clear when manually inspected)
  Solubility, Condition 5: + (“+” denotes solubility at the given condition, as determined by UV absorbance being less than 0.1 AU at 340 nm and the sample being clear when manually inspected)

From patent US11965039B2, “Compstatin analogues and their medical uses” (priority 2018, dated 2024)
